Reference: patent publication US20250144067A1, “PERSONALIZED STARVATION THERAPY FOR CANCER” (Faeth Therapeutics, Inc., priority 2021, published 2025)
Where a name gives a salt, the structure may show the parent alone. Read-outs that look alike come from different tables or passages of the source.

What was measured:
[1] = system: NCI-H292 lung cancer cells; test: FDA drug screening, complete media vs cholesterol-free media without statin (TABLE 1); assay type: cell-based, human
[2] = system: NCI-H292 lung cancer cells; test: FDA drug screening, complete media vs cholesterol-free media with simvastatin (TABLE 2); assay type: cell-based, human
[3] = NCI-H292 cells, cholesterol-free media without statin, FDA drug library screen
[4] = NCI-H292 cells, complete media, FDA drug library screen
[5] = complete vs cholesterol-free media, >0 enhanced anti-cancer activity, about 0 neutral, <0 antagonist
[6] = NCI-H292 cells, FDA drug library screen, cholesterol-free media with simvastatin 0.04 μM
[7] = complete media minus cholesterol-free media + simvastatin, >0 enhanced anti-cancer activity, about 0 neutral, <0 antagonist
[8] = Complete minus Cholesterol-free, […]
[9] = NCI-H292 cells in cholesterol-free media without statin
[10] = NCI-H292 cells in complete media
[11] = NCI-H292 cells, FDA library drug in cholesterol-free media with simvastatin 0.04 μM
[12] = NCI-H292 cells, FDA library drug in complete media
[13] = complete media vs cholesterol-free media + simvastatin (0.04 μM), […]
[14] = NCI-H292 cells, cholesterol-free media without statin
[15] = NCI-H292 cells, cholesterol-free media with simvastatin 0.04 μM, FDA drug library screen (TABLE 2)
[16] = NCI-H292 cells, complete media, FDA drug library screen (TABLE 2)
[17] = complete media minus cholesterol-free media + simvastatin (0.04 μM), >0 enhanced anti-cancer activity, about 0 neutral, <0 antagonist
[18] = NCI-H292 cells, FDA drug library screen, complete media
[19] = complete vs cholesterol-free media, greater than 0 enhanced anti-cancer activity, about 0 neutral, below 0 antagonists
[20] = Complete minus Cholesterol-free, >0 enhanced anti-cancer activity, about 0 neutral, <0 antagonist
[21] = NCI-H292 cells, drug in cholesterol-free media with simvastatin 0.04 μM
[22] = NCI-H292 cells, drug in complete media
[23] = complete media vs cholesterol-free media + simvastatin (0.04 μM), >0 enhanced anti-cancer activity, about 0 neutral, <0 antagonist
[24] = Complete minus Cholesterol-free, greater than 0 enhanced anti-cancer activity, about 0 neutral, below 0 antagonists

NCCCC(O)(P(=O)(O)O)P(=O)(O)O [Alendronate (sodium hydrate)]
Cholesterol-free [1, 3]: 0.1249
Complete [1, 4]: 0.2776
Difference [1, 5]: 0.15
Cholesterol-free media + simvastatin (0.04 μM) [2, 6]: 0.388
Difference [2, 7]: 0.78

Bremelanotide (Acetate)
Difference [1, 8]: −0.90
Cholesterol-free [1, 9]: 1.638
Complete [1, 10]: 0.7395
Cholesterol-free media + simvastatin (0.04 μM) [2, 11]: 1.644
Complete Media [2, 12]: 1.021
Difference [2, 13]: −0.62

CC1(C)C(C=C(Cl)Cl)C1C(=O)OCc1cccc(Oc2ccccc2)c1 (stereo not shown) [Permethrin]
Cholesterol-free [1, 14]: 1.352
Complete ([1]; NCI-H292 cells, complete media): 0.9496
Difference ([1]; complete vs cholesterol-free media, […]): −0.40
Cholesterol-free media + simvastatin (0.04 μM) [2, 11]: 1.233
Complete Media [2, 12]: 0.8994
Difference [2, 13]: −0.33

O=C1OCCN1/N=C/c1ccc([N+](=O)[O-])o1 [Furazolidone]
Cholesterol-free [1, 3]: 0.797
Difference [1, 5]: 0.35
Cholesterol-free media + simvastatin (0.04 μM) [2, 15]: 0.938
Complete Media [2, 16]: 0.9029
Difference [2, 17]: −0.04

CNC(=O)c1cc(Oc2ccc(NC(=O)Nc3ccc(Cl)c(C(F)(F)F)c3)cc2)ccn1 [Sorafenib]
Cholesterol-free [1, 3]: 0.8045
Complete [1, 4]: 1.015
Difference [1, 5]: 0.21
Cholesterol-free media + simvastatin (0.04 μM) [2, 6]: 0.7364
Complete Media [2, 18]: 0.915
Difference [2, 7]: 0.18

COc1cccc(N2CCN(C3=Nc4c(F)cccc4[C@H](CC(=O)O)N3c3cc(C(F)(F)F)ccc3OC)CC2)c1 [Letermovir]
Cholesterol-free [1, 14]: 1.5
Complete ([1]; NCI-H292 cells, complete media): 1.08
Difference [1, 19]: −0.42
Cholesterol-free media + simvastatin (0.04 μM) [2, 15]: 1.527
Complete Media [2, 16]: 1.457
Difference [2, 17]: −0.07

Cc1ncc(CNC(=O)N(CCCl)N=O)c(N)n1 [Nimustine (hydrochloride)]
Cholesterol-free [1]: 1.02
Complete [1]: 1.016
Difference [1]: 0.00
Cholesterol-free media + simvastatin (0.04 μM) [2]: 1.194
Complete Media [2]: 1.026
Difference [2]: −0.17

COc1cnc(NS(=O)(=O)c2ccc(N)cc2)nc1 [Sulfameter]
Difference ([1]; Complete minus Cholesterol-free, greater than 0 enhanced anti-cancer activity, about 0 neutral, below 0 antagonist): −0.13
Cholesterol-free ([1]; NCI-H292 cells, FDA drug library screen, cholesterol-free media without statin): 0.9159
Complete [1, 18]: 0.7824
Cholesterol-free media + simvastatin (0.04 μM) [2, 15]: 0.9816
Complete Media [2, 16]: 0.9471
Difference [2, 17]: −0.03

Gluconate (Calcium)
Difference [1, 8]: −0.74
Complete [1, 10]: 0.8786
Cholesterol-free media + simvastatin (0.04 μM) [2, 11]: 1.134
Complete Media [2, 12]: 0.8004
Difference [2, 13]: −0.33

Cc1ccc2c(Cl)cc(Cl)c(O)c2n1 [Chlorquinaldol]
Difference [1, 20]: 0.01
Cholesterol-free [1, 3]: 0.003949
Complete [1, 4]: 0.01849
Cholesterol-free media + simvastatin (0.04 μM) [2, 15]: 0.0008861
Complete Media [2, 16]: 0.007501
Difference [2, 17]: 0.01

Heparin (sodium salt) (MW 15 kDa)
Difference [1, 8]: −0.29
Cholesterol-free [1, 14]: 1.451
Complete ([1]; NCI-H292 cells, complete media): 1.156
Complete Media [2, 18]: 1.339
Difference ([2]; complete media minus cholesterol-free media + simvastatin, […]): 0.23

CCCCC[C@H](O)CC[C@@H]1[C@H]2Cc3cccc(OCC(=O)O)c3C[C@H]2C[C@H]1O [Treprostinil (sodium)]
Difference [1, 20]: −0.02
Cholesterol-free [1, 3]: 1.017
Complete [1, 4]: 0.9998
Cholesterol-free media + simvastatin (0.04 μM) [2, 21]: 1.119
Complete Media [2, 22]: 0.898
Difference [2, 23]: −0.22

CCCCC(CC)COC(=O)C(C#N)=C(c1ccccc1)c1ccccc1 (stereo not shown) [Octocrylene]
Difference [1, 24]: −0.58
Cholesterol-free [1, 9]: 1.541
Complete [1, 10]: 0.9621
Cholesterol-free media + simvastatin (0.04 μM) [2, 6]: 1.183
Complete Media [2, 18]: 1.029
Difference [2, 23]: −0.15

CN1CCC[C@@H]1Cc1c[nH]c2ccc(CCS(=O)(=O)c3ccccc3)cc12 [Eletriptan (hydrobromide)]
Cholesterol-free [1, 14]: 1.406
Complete ([1]; NCI-H292 cells, complete media): 1.08
Difference [1, 19]: −0.33
Cholesterol-free media + simvastatin (0.04 μM) [2, 11]: 1.33
Complete Media [2, 12]: 0.9128
Difference [2, 23]: −0.42

COc1cc(Nc2ncc(F)c(Nc3ccc4c(n3)N(COP(=O)(O)O)C(=O)C(C)(C)O4)n2)cc(OC)c1OC [Fostamatinib (disodium hexahydrate)]
Difference [1, 20]: 0.00
Cholesterol-free [1, 3]: 0.5454
Complete [1, 4]: 0.5466
Cholesterol-free media + simvastatin (0.04 μM) [2, 6]: 0.9752
Complete Media [2, 18]: 0.8745
Difference [2, 23]: −0.10

CC(C(=O)O)c1ccc(-c2ccccc2)c(F)c1 (stereo not shown) [Flurbiprofen]
Cholesterol-free [1, 3]: 1.072
Complete [1, 4]: 1.387
Difference [1, 5]: 0.31
Cholesterol-free media + simvastatin (0.04 μM) [2, 21]: 1.217
Complete Media [2, 22]: 1.042
Difference [2, 23]: −0.18

Cc1c(OCC(F)(F)F)ccnc1C[S+]([O-])c1nc2ccccc2[nH]1 (stereo not shown) [Lansoprazole]
Cholesterol-free [1, 14]: 1.34
Complete ([1]; NCI-H292 cells, complete media): 0.9564
Difference [1, 19]: −0.38
Cholesterol-free media + simvastatin (0.04 μM) [2, 11]: 1.103
Complete Media [2, 12]: 0.6471
Difference [2, 23]: −0.46

CN1CCN2c3ccccc3Cc3ccccc3C2C1 (stereo not shown) [Mianserin (hydrochloride)]
Cholesterol-free [1, 3]: 1.049
Difference [1, 5]: 0.13
Cholesterol-free media + simvastatin (0.04 μM) [2, 6]: 1.121
Complete Media [2, 18]: 1.021
Difference [2, 23]: −0.10

COC(=O)N[C@H](C(=O)N1CCC[C@H]1c1nc(-c2ccc3c(c2)O[C@@H](c2ccccc2)n2c-3cc3cc(-c4c[nH]c([C@@H]5CCCN5C(=O)[C@@H](NC(=O)OC)C(C)C)n4)ccc32)c[nH]1)C(C)C [Elbasvir]
Difference [1, 24]: −0.70
Cholesterol-free [1, 9]: 1.334
Complete [1, 10]: 0.6346
Cholesterol-free media + simvastatin (0.04 μM) [2, 15]: 0.9746
Complete Media [2, 16]: 0.9378
Difference [2, 17]: −0.04

CC(=O)Oc1cc(C(F)(F)F)ccc1C(=O)O [Triflusal]
Cholesterol-free [1, 3]: 1.019
Complete [1, 4]: 1.117
Difference [1, 5]: 0.10
Cholesterol-free media + simvastatin (0.04 μM) [2, 6]: 1.154
Complete Media [2, 18]: 1.083
Difference [2, 23]: −0.07

Cc1cccc(Nc2ccccc2C(=O)O)c1C [Mefenamic acid]
Difference [1, 24]: −0.58
Cholesterol-free [1, 9]: 2.136
Complete [1, 10]: 1.551
Cholesterol-free media + simvastatin (0.04 μM) [2, 6]: 1.014
Complete Media [2, 18]: 0.8951
Difference [2, 23]: −0.12

CCN(CC)CCOC(=O)C(O)(c1ccccc1)c1ccccc1 [Benactyzine hydrochloride]
Difference [1, 8]: −0.51
Cholesterol-free [1, 9]: 1.39
Complete [1, 10]: 0.878
Cholesterol-free media + simvastatin (0.04 μM) [2, 21]: 1.159
Complete Media [2, 22]: 0.961
Difference [2, 13]: −0.20

CC(C)COCC(CN(Cc1ccccc1)c1ccccc1)N1CCCC1 (stereo not shown) [Bepridil (hydrochloride hydrate)]
Difference [1, 20]: −0.25
Cholesterol-free [1, 14]: 1.151
Complete ([1]; NCI-H292 cells, complete media): 0.8961
Cholesterol-free media + simvastatin (0.04 μM) [2, 6]: 1.501
Complete Media [2, 18]: 1.762
Difference [2, 7]: 0.26
